# Experimental data from paper PMC10508264, “Exploring the antioxidant, antimicrobial, cytotoxic and biothermodynamic properties of novel morpholine derivative bioactive Mn(II), Co(II) and Ni(II) complexes – combined experimental and theoretical measurements towards DNA/BSA/SARS-CoV-2 3CL^Pro” (RSC Medicinal Chemistry, 2023).
# Key:
# BSA = BSA (Bos taurus, UniProt P02769); format: binding, bovine; conditions: for Δλ (nm), blue shift of BSA band: 25 μM BSA, compound 0–25 μM; for Binding constant Kapp by BH method (Kb, BSA): 25 °C; for Gibb's free energy change of BSA binding: T = 298 K
# EB–DNA = EB–DNA competitive fluorescence emission titration; format: binding; conditions: for KSV (SV method I), DNA / Kass (SV method II), DNA / Kq (SV method I), DNA: EB–DNA; for Kq (SV method I), DNA: τ0 = 10^−8 s; for Kapp (apparent binding constant): KEB = 10^7 M^−1 at 50 μM EB; for LWB method KLB: Lineweaver–Burk
# Description: Titrations were performed for all tested compounds (1–200 μM) with pre-incubated EB-bound DNA and the intensity variations between 510 nm and 610 nm were carefully monitored in the presence and absence of DNA (200 μM) during the initial emission and excitation by EB.[31]
# Fluorescence emission spectral titration is an efficient approach to evaluating the binding properties of DNA/BSA biomolecules. In general, the fluorescence of EB is quite weak in aqueous solution, but when it is bound to DNA, the fluorescence intensity rises. However, it is a well-known imperative intercalator and is more supportive in distinguishing the binding strength of non-fluorescence test substances. Also, the fluorescence emission spectra of the EB–DNA adduct were examined at 610 nm in the absence and presence of rising quantities of each test compound. When the complex concentration (0–240 μM) rises, the fluorescence intensity of the EB-bound DNA complex diminishes owing to the displacement of EB from CT-DNA. A notable reduction in the fluorescence emission intensity at 610 nm is observed (Fig. S26 ^† and Table 4). The photoelectron shift from DNA's guanine base to the excited states may be the cause of the frequency quenching in the emission of the test substance by DNA. […] Therefore, the competitive binding experiment can make use of EB as a fluorescent probe. […] This is further evidence that complexes (1–3) strongly bind intercalatively with DNA. The observed results agree well with the data from electronic absorption spectral measurements. Additionally, the experiment was extended to examine the binding properties between the test substance and BSA. BSA mostly contains three amino acid residues (tyrosine, tryptophan, and phenylalanine), which give it its inherent fluorescence. […] These two residues also have minimal quenching effects. Tryptophan in BSA fluoresces mostly because of a residue that is trapped inside a hydrophobic cavity. Therefore, it is crucial to model potential binding interactions with the metal complexes. […] The fluorescence intensity also reduces while the test substances (1–3) are steadily blended with the BSA solution, proving that complexes (1–3) interact with BSA via altering the protein's secondary structure, which also leads to an alteration in the tryptophan environment of BSA (Fig. S27 ^†). Furthermore, BSA structural similarities share 76% sequence identity with human serum albumin (HSA), the most prevalent protein in blood plasma that transports ions and proteins to cells and tissues. HSA is able to readily crystallize under the trivalent cations, but BSA has no ready crystallizing property. However, they consist of parallel physicochemical properties to each other.[74,75] Additionally, the Stern–Volmer eqn (12) and (13) were employed to analyze the data (Fig. S28 ^† and Table 4). Additionally, the kq values for DNA and BSA binding were acquired in the range of 1.1636–2.8863 × 10^12 and 2.6390–7.0774 × 10^12 mol^−1 s^−1, respectively. They are also much greater than the collision quenching constant value (2.0 × 10^10 mol^−1 s^−1). Therefore, it is assumed that the static quenching process was brought on by adduct construction between the test compounds and BSA rather than a dynamic collision. However, fluorescence spectroscopy is generally plagued by the inner filter effect (IFE), disturbing spectral analysis. The energizing ray is attenuated due to the highly concentrated solution sample. As a result, strong fluorescence is only seen on surfaces facing the excitation beam.
# Aspergillus niger = experiment: Agar disc diffusion, strain H; format: cell-based; design: Inhibition%: concentration or dose not given beside the values; conditions: for Diameter of clear zone inhibition: control 6 mm
# [1] = tested on: Salmonella enterica serovar typhi; experiment: Agar disc diffusion, strain C; format: cell-based; conditions: for Diameter of clear zone inhibition: control 6 mm
# Candida albicans = experiment: Agar disc diffusion, strain I; format: cell-based; design: Inhibition%: concentration or dose not given beside the values; conditions: for Diameter of clear zone inhibition: control 6 mm
SMILES,"Δλ (nm), blue shift of BSA band (BSA)","Binding constant Kapp by BH method (Kb, BSA) (BSA)",Gibb's free energy change of BSA binding (BSA),Scatchard analysis KSA (EB–DNA),"KSV (SV method I), DNA (EB–DNA)","Kass (SV method II), DNA (EB–DNA)","Kq (SV method I), DNA (EB–DNA)",Kapp (apparent binding constant) (EB–DNA),LWB method KLB (EB–DNA),Inhibition% (Aspergillus niger),Diameter of clear zone inhibition (Aspergillus niger),Inhibition% [1],Diameter of clear zone inhibition [1],Inhibition% (Candida albicans),Diameter of clear zone inhibition (Candida albicans)
"Oc1ccccc1N=Cc1ccc(N2CCOCC2)cc1 [(HL), 2-(4-morpholinobenzylideneamino)phenol]",02 nm,7556 M⁻¹,-5.28791 kcal/mol,19093 M⁻¹,11636 M⁻¹,9606 M⁻¹,1.1636e+12 M⁻¹ s⁻¹,5.829e+06 M⁻¹,6985 M⁻¹,40%,10 mm,45%,11 mm,40%,10 mm
[Mn+2].[O-]c1ccccc1N=Cc1ccc(N2CCOCC2)cc1.[O-]c1ccccc1N=Cc1ccc(N2CCOCC2)cc1.c1ccc(-c2ccccn2)nc1 [(1)],03 nm,12429 M⁻¹,-5.5827 kcal/mol,30094 M⁻¹,16755 M⁻¹,11954 M⁻¹,1.6755e+12 M⁻¹ s⁻¹,5.926e+06 M⁻¹,7149 M⁻¹,50%,12 mm,40%,10 mm,57%,14 mm
[Ni+2].[O-]c1ccccc1N=Cc1ccc(N2CCOCC2)cc1.[O-]c1ccccc1N=Cc1ccc(N2CCOCC2)cc1.c1ccc(-c2ccccn2)nc1 [(3)],02 nm,18374 M⁻¹,-5.81417 kcal/mol,32363 M⁻¹,16879 M⁻¹,10350 M⁻¹,1.6879e+12 M⁻¹ s⁻¹,7.34e+06 M⁻¹,7786 M⁻¹,50%,12 mm,45%,11 mm,63%,16 mm
[Co+2].[O-]c1ccccc1N=Cc1ccc(N2CCOCC2)cc1.[O-]c1ccccc1N=Cc1ccc(N2CCOCC2)cc1.c1ccc(-c2ccccn2)nc1 [(2)],02 nm,30937 M⁻¹,-6.12271 kcal/mol,33185 M⁻¹,28863 M⁻¹,32903 M⁻¹,2.8863e+12 M⁻¹ s⁻¹,8.349e+06 M⁻¹,13497 M⁻¹,50%,12 mm,40%,10 mm,50%,12 mm
